Laboratory results from US10899732B2, “Substituted benzamides useful as sodium channel blockers” (GENENTECH, INC., priority 2015, dated 2021).
pIC50: −log10 of the molar value.

Legend:
NaV1.7 = target: T1, NaV1.7 (Homo sapiens, UniProt Q15858); assay: Patch voltage clamp electrophysiology assay (EP), NaV1.7 in HEK-293 cells; type: cell-based; settings: HEK-293, β1 coexpressed, held at -60 mV (inactivated state)
T1 construct: expression vector containing the full-length cDNA coding for the desired human sodium channel α-subunit; expressed in transfected cells; host or cells: HEK-293
From the text: (§1) Electrophysiological Assay (EP) (In Vitro Assay)
(§2) Patch voltage clamp electrophysiology allows for the direct measurement and quantification of block of voltage-gated sodium channels (NaV's), and allows the determination of the time- and voltage-dependence of block which has been interpreted as differential binding to the resting, open, and inactivated states of the sodium channel (Hille, B., Journal of General Physiology (1977), 69: 497-515).
(§3) The following patch voltage clamp electrophysiology studies were performed on representative compounds of the invention using human embryonic kidney cells (HEK), permanently transfected with an expression vector containing the full-length cDNA coding for the desired human sodium channel α-subunit, grown in culture media containing 10% FBS, 1% PSG, and 0.5 mg/mL G418 at 37° C. with 5% CO2. […] NaV1.7 and NaV1.5 cDNAs (NM_002977 and AC137587; SCN5A, respectively) were stably expressed in HEK-293 cells. The β1 subunit was coexpressed in both the NaV1.7 and NaV1.5 cell lines.
(§4) Sodium currents were measured using the patch clamp technique in the whole-cell configuration using either a PatchXpress automated voltage clamp or manually using an Axopatch 200B (Axon Instruments) or Model 2400 (A-M systems) amplifier. The manual voltage clamp protocol was as follows: Borosilicate glass micropipettes were fire-polished to a tip diameter yielding a resistance of 2-4 Mohms in the working solutions. The pipette was filled with a solution comprised of: 5 mM NaCl, 10 mM CsCl, 120 mM CsF, 0.1 mM CaCl2, 2 mM MgCl2, 10 mM HEPES, 10 mM EGTA; and adjusted to pH 7.2 with CsOH. The external solution had the following composition: 140 mM NaCl, 5 mM KCl, 2 mM CaCl2, 1 mM MgCl2, 10 mM HEPES; and adjusted to pH 7.4 with NaOH. In some studies, the external sodium was reduced by equimolar replacement with choline. Osmolarity in the CsF internal and NaCl external solutions was adjusted to 300 mOsm/kg and 310 mOsm/kg with glucose, respectively. All recordings were performed at ambient temperature in a bath chamber with a volume of 150 μL. Control sodium currents were measured in 0.5% DMSO. Controls and representative compounds of the invention were applied to the recording chamber through a 4-pinch or 8-pinch valve bath perfusion system manufactured by ALA Scientific Instruments.
(§5) Currents were recorded at 40 kHz sampling frequency, filtered at […], and stored using a Digidata-1322A analogue/digital interface with the pClamp software (Axon Instruments). Series resistance compensation was applied (60-80%). […] All statistics in this study are given as mean±SD.
(§6) The membrane potential was maintained at a voltage where inactivation of the channel is complete (which was −60 mV for both NaV1.7 and NaV1.5). The voltage is then stepped back to a very negative (Vhold=[…]) voltage for 20 ms and then a test pulse is applied to quantify the compound block. The 20 ms brief repolarization was long enough for compound-free channels to completely recover from fast inactivation, but the compound-bound channels recovered more slowly such that negligible recovery could occur during this interval. The percent decrease in sodium current following wash-on of compound was taken as the percent block of sodium channels.

NaV1.5 = target: T2, NaV1.5 (Homo sapiens, UniProt Q14524); assay: Patch voltage clamp electrophysiology assay (EP), NaV1.5 in HEK-293 cells; type: cell-based; settings: HEK-293, β1 coexpressed, held at -60 mV (inactivated state)
T2 construct: expression vector containing the full-length cDNA coding for the desired human sodium channel α-subunit; expressed in transfected cells; host or cells: HEK-293
From the text: as §1, §2, §3, §4, §5, §6

hNav1.7 = target: T3, hNav1.7 (Homo sapiens, UniProt Q15858); assay: Tritiated sulfonamide competitive binding to membranes from cells expressing hNav1.7 and the β1 subunit (LBA); settings: competition with 100 pM [3H]compound, 18 h, room temperature; read-out: Nav1.7 (LBA)
T3 construct: expressed in transfected cells
Protocol: Tritiated Sulfonamide Binding to Membranes Isolated from Cells that Heterologously Express hNav1.7 and the β1 Subunit
Preparation of membranes containing recombinantly expressed sodium channels: Frozen recombinant cell pellets were thawed on ice and diluted to 4 times the cell pellet weight with ice cold 50 mM Tris HCl, pH 7.4 buffer. The cell suspensions were homogenized on ice using a motorized glass dounce homogenizer. Homogenates were further diluted 8.4 times with ice cold 50 mM Tris HCl, pH 7.4 buffer and then centrifuged at 200×g at 4° C. for 15 min. The supernatants were collected and centrifuged at 10000×g at 4° C. for 50 min. The pellets were then re-suspended in 100 mM NaCl, 20 mM Tris HCl, pH 7.4 buffer containing 1% v/v protease inhibitors (Calbiochem) and re-homogenized on ice. The homogenized membranes were then processed through a syringe equipped with a 26 gauge needle. Protein concentrations were determined by Bradford Assay and the membranes were stored at −80° C.
Saturation experiments. A competitive NaV1.7 inhibitor having a methyl group was tritiated. Three tritiums were incorporated in place of methyl hydrogens to generate [^3H]compound. Binding of this radioligand was preformed in 5 mL borosilicate glass test tubes at room temperature. Binding was initiated by adding membranes to increasing concentrations of [^3H]compound in 100 mM NaCl, 20 mM Tris HCl, pH 7.4 buffer containing 0.01% w/v bovine serum albumin (BSA) for 18 h. Non-specific binding was determined in the presence of 1 μM unlabelled compound. After 18 h, the reactants were filtered through GF/C glass fiber filters presoaked in 0.5% w/v polyethylene imine. Filters were washed with 15 mL ice cold 100 mM NaCl, 20 mM Tris HCl, pH 7.4 buffer containing 0.25% BSA to separate bound from free ligand. [^3H]compound bound to filters was quantified by liquid scintillation counting.
Binding reactions were performed in 96-well polypropylene plates at room temperature for 18 h. In 360 μL, membranes were incubated with 100 pM [^3H]compound and increasing concentrations of Test Compound. Non-specific binding was defined in the presence of 1 μM unlabelled compound. Reactions were transferred and filtered through 96-well glass fiber/C filter plates presoaked with 0.5% polyethylene imine. The filtered reactions were washed 5 times with 200 μL ice cold buffer containing 0.25% BSA. Bound radioactivity was determined by liquid scintillation counting.
Data Analysis: For saturation experiments, non-specific binding was subtracted from total binding to provide specific binding and these values were recalculated in terms of pmol ligand bound per mg protein. Saturation curves were constructed and dissociation constants were calculated using the single site ligand binding model: Beq=(Bmax*X)/(X+Kd), where Beq is the amount of ligand bound at equilibrium, Bmax is the maximum receptor density, Kd is the dissociation constant for the ligand, and X is the free ligand concentration. For competition studies percent inhibition was determined and IC50 values were calculated using a 4 parameter logistic model (% inhibition=(A+((B−A)/(1+((x/C)^D)))) using XLfit, where A and B are the maximal and minimum inhibition respectively, C is the IC50 concentration and D is the (Hill) slope.

T2 sequence (Q14524 whole entry): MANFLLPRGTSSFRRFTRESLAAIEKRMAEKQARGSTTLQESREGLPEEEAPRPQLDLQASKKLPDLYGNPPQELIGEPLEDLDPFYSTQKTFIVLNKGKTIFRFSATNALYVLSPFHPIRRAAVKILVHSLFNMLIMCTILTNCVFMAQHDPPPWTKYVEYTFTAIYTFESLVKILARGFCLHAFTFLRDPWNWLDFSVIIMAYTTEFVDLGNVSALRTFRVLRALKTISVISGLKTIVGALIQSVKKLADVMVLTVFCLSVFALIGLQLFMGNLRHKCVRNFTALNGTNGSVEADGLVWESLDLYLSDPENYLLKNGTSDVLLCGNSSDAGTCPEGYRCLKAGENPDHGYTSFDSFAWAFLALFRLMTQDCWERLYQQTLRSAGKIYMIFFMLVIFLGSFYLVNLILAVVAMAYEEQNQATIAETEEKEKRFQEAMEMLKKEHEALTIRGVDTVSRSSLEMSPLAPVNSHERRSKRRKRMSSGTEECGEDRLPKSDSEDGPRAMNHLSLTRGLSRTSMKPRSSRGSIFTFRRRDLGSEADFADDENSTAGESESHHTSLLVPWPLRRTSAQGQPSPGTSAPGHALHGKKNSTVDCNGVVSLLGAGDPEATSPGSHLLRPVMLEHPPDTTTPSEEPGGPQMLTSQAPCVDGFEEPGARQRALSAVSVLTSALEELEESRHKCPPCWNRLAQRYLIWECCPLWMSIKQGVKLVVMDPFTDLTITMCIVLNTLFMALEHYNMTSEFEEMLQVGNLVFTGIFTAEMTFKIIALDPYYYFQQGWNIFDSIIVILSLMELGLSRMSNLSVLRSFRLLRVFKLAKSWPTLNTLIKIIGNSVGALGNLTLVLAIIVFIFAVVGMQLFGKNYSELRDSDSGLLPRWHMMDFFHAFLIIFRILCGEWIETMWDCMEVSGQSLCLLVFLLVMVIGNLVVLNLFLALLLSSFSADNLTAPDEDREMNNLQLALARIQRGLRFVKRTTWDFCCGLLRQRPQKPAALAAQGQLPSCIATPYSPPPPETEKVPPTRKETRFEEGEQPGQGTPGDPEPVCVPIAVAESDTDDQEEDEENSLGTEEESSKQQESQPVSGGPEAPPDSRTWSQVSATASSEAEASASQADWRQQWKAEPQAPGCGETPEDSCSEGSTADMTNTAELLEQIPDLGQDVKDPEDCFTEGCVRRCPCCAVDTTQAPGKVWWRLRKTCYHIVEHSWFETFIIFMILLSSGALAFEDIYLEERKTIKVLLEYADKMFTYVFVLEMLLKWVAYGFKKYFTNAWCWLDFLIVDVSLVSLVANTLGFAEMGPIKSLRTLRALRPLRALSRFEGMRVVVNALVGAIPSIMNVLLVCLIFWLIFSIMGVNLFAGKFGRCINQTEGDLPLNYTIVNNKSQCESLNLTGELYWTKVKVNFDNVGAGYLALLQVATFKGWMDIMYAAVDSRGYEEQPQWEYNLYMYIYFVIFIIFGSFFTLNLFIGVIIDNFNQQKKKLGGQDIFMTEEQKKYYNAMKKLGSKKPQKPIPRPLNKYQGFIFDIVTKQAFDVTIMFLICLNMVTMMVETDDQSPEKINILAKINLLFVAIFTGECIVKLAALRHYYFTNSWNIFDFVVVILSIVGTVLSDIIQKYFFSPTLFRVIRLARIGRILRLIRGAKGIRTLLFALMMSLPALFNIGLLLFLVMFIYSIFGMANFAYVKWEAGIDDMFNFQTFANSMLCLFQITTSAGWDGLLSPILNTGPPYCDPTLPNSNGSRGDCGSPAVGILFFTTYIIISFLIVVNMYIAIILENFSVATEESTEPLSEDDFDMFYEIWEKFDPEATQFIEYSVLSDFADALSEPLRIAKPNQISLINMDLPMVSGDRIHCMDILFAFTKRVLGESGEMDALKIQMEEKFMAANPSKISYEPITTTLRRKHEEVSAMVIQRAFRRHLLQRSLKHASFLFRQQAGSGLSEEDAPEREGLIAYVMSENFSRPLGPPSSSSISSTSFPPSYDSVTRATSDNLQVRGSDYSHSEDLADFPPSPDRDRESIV
T3 sequence (Q15858 1-1977 isoform Q15858-3): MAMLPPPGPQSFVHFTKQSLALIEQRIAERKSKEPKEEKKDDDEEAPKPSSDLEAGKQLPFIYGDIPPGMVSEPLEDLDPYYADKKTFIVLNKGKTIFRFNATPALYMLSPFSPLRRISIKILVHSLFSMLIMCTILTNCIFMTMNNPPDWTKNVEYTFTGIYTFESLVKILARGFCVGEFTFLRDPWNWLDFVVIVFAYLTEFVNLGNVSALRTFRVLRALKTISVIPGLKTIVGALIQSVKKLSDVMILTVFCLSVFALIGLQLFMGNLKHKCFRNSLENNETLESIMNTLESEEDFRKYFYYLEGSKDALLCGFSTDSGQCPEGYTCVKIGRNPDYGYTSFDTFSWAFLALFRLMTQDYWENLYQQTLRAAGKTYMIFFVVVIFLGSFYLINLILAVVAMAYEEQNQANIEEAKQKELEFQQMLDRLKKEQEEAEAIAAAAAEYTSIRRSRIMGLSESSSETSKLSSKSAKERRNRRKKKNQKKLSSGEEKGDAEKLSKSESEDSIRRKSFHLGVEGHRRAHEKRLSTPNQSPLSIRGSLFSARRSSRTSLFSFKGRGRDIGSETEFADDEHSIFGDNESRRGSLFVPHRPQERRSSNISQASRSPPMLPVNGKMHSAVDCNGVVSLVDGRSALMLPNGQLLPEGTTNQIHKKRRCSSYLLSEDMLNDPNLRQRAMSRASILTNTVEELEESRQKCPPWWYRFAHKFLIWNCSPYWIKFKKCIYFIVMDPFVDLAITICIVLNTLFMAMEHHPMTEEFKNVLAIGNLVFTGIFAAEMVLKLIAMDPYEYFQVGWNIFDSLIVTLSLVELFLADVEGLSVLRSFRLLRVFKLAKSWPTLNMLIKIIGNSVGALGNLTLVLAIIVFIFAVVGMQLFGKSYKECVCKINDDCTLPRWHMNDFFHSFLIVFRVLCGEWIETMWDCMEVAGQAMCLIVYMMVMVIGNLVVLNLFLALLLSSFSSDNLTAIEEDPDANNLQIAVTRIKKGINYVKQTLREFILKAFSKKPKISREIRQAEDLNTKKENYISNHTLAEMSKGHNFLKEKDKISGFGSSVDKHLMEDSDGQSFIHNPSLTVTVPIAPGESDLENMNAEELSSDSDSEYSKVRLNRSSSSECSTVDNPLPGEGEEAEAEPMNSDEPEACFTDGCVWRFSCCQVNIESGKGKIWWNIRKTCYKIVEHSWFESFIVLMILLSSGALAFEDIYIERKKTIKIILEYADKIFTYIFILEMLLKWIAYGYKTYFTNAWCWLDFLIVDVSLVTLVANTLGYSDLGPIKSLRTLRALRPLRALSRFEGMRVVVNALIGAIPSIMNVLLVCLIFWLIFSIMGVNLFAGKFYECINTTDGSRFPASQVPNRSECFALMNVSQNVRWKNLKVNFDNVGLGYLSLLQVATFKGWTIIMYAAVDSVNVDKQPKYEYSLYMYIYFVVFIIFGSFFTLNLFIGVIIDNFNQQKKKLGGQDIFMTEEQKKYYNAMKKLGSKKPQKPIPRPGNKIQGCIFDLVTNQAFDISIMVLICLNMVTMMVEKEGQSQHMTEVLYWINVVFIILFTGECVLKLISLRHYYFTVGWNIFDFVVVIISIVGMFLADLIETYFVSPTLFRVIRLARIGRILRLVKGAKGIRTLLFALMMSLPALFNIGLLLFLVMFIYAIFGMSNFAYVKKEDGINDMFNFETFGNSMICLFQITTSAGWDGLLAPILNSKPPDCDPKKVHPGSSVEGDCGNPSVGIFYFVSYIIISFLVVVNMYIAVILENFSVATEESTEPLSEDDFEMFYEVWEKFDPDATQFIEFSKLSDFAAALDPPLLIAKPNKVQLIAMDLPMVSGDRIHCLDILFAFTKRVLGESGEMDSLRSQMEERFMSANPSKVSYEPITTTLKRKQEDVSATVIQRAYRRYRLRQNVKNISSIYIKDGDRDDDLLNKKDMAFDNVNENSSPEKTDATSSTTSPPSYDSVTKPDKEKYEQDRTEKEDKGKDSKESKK
T3 sequence (Q07699 19-218 partner): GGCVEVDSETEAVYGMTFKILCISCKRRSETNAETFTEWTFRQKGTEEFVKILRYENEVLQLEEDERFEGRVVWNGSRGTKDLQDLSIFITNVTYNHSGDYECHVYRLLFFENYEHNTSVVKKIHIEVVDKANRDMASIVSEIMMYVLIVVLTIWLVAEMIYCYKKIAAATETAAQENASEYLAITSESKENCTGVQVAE
T1 sequence (Q15858 1-1977 isoform Q15858-3): as the sequence (Q15858 1-1977 isoform Q15858-3) above
T1 sequence (Q07699 19-218 partner): as the sequence (Q07699 19-218 partner) above

Row | pIC50 (NaV1.7) | pIC50 (hNav1.7) | Structure (SMILES) | pIC50 (NaV1.5) | pIC50 (NaV1.5; human, pH 7.4)
1 | 7.06 | 7.96 | Cc1nn(C2CN(Cc3cc(Cl)cc(OC(F)(F)F)c3)C2)c2cc(F)c(C(=O)NS(=O)(=O)C3CC3)cc12 [Example 15, 1-(1-(3-chloro-5-(trifluoromethoxy)benzyl)azetidin-3-yl)-N-(cyclopropylsulfonyl)-6-fluoro-3-methyl-1H-indazole-5-carboxamide] | 5.49 | 
2 | 7.35 | 8.22 | Cc1nn([C@@H]2CCN([C@H](C)c3cc(Cl)cc(Cl)c3)C2)c2cc(F)c(C(=O)NS(=O)(=O)C3CC3)cc12 [Example 17, N-(cyclopropylsulfonyl)-1-((R)-1-((R)-1-(3,5-dichlorophenyl)ethyl)pyrrolidin-3-yl)-6-fluoro-3-methyl-1H-indazole-5-carboxamide 2,2,2-trifluoroacetate] | 6.06 | 
3 | 6.00 | 6.46 | Cc1nn(C2CCC(C)CC2)c2cc(F)c(C(=O)NS(=O)(=O)N3CCC3)cc12 (stereo not shown) [Example 29, N-(azetidin-1-ylsulfonyl)-6-fluoro-3-methyl-1-(4-methylcyclohexyl)-1H-indazole-5-carboxamide] |  | 
4 | 6.49 | 7.33 | Cc1nn(C2CCC(C(C)(C)C)CC2)c2cc(F)c(C(=O)NS(C)(=O)=O)cc12 (stereo not shown) [Example 28, 1-(4-(tert-butyl)cyclohexyl)-6-fluoro-3-methyl-N-(methylsulfonyl)-1H-indazole-5-carboxamide] |  | 
5 | 7.36 | 6.59 | Cc1nn(-c2ccc3c(c2)CCCC3)c2cc(F)c(C(=O)NS(=O)(=O)N3CCC3)cc12 [Example 25, N-(azetidin-1-ylsulfonyl)-6-fluoro-3-methyl-1-(5,6,7,8-tetrahydronaphthalen-2-yl)-1H-indazole-5-carboxamide] |  | 
6 |  |  | Cc1nn(C2CCOCC2)c2cc(F)c(C(=O)NS(=O)(=O)N3CCC3)cc12 [Example 32, N-(azetidin-1-ylsulfonyl)-6-fluoro-3-methyl-1-(tetrahydro-2H-pyran-4-yl)-1H-indazole-5-carboxamide] |  | ≤ 4.52
7 | 7.41 | 7.60 | Cc1nn(C2CCC(C(C)C)CC2)c2cc(F)c(C(=O)NS(=O)(=O)N3CCC3)cc12 (stereo not shown) [Example 30, N-(azetidin-1-ylsulfonyl)-6-fluoro-1-(4-isopropylcyclohexyl)-3-methyl-1H-indazole-5-carboxamide] |  | 
8 | 5.70 | 6.47 | Cc1nn(C2CCC(C)CC2)c2cc(F)c(C(=O)NS(C)(=O)=O)cc12 (stereo not shown) [Example 31, 6-fluoro-3-methyl-1-(4-methylcyclohexyl)-N-(methylsulfonyl)-1H-indazole-5-carboxamide] |  | 
9 | 6.85 | 7.64 | Cc1nn(C2CCC(C(C)(C)C)CC2)c2cc(F)c(C(=O)NS(=O)(=O)N3CCC3)cc12 (stereo not shown) [Example 27, N-(azetidin-1-ylsulfonyl)-1-(4-(tert-butyl)cyclohexyl)-6-fluoro-3-methyl-1H-indazole-5-carboxamide] |  | 
10 | 6.80 | 7.00 | Cc1nn(-c2ccc3c(c2)CCCC3)c2cc(F)c(C(=O)NS(C)(=O)=O)cc12 [Example 26, 6-fluoro-3-methyl-N-(methylsulfonyl)-1-(5,6,7,8-tetrahydronaphthalen-2-yl)-1H-indazole-5-carboxamide] |  | 
11 |  |  | Cc1nn(C2CCOCC2)c2cc(F)c(C(=O)NS(C)(=O)=O)cc12 [Example 34, 6-fluoro-3-methyl-N-(methylsulfonyl)-1-(tetrahydro-2H-pyran-4-yl)-1H-indazole-5-carboxamide] |  | ≤ 4.52

Row | Structure (SMILES) | pIC50 (NaV1.7) | pIC50 (hNav1.7) | pIC50 (NaV1.5) | pIC50 (NaV1.5; human, pH 7.4)
12 | Cc1nn(-c2cnc(OCC(C)C)c(Cl)c2)c2cc(F)c(C(=O)NS(=O)(=O)N3CCC3)cc12 [Example 42, N-(azetidin-1-ylsulfonyl)-1-(5-chloro-6-isobutoxypyridin-3-yl)-6-fluoro-3-methyl-1H-indazole-5-carboxamide] | 7.15 | 8.15 |  | ≤ 4.52
